Measured values from patent US10588317B2, “Isoxazoline-substituted benzamides and analogues as insecticides” (priority 2015, dated 2020).

What was measured:
Type in all cases: in vivo
Diabrotica balteata = Diabrotica balteata (corn root worm), sprayed maize sprouts; details: 96 h, application rate 200 ppm, L2 larvae, 4 days after infestation, read-out: effect in at least one of the two categories (mortality or growth inhibition)
Experimental: Maize sprouts placed onto an agar layer in 24-well microtiter plates were treated with aqueous test solutions prepared from 10'000 ppm DMSO stock solutions by spraying. After drying, the plates were infested with L2 larvae (6 to 10 per well). The samples were assessed for mortality and growth inhibition in comparison to untreated samples 4 days after infestation.
(§1) The following compounds gave an effect of at least 80% in at least one of the two categories (mortality or growth inhibition) at an application rate of 200 ppm: […]

Euschistus heros = Euschistus heros (neotropical brown stink bug), sprayed soybean leaves; details: 120 h, application rate 200 ppm, N2 nymphs, 5 days after infestation, read-out: effect in at least one of the two categories (mortality or growth inhibition)
Experimental: Soybean leaves on agar in 24-well microtiter plates were sprayed with aqueous test solutions prepared from 10'000 ppm DMSO stock solutions. After drying the leaves were infested with N2 nymphs. The samples were assessed for mortality and growth inhibition in comparison to untreated samples 5 days after infestation.
as §1

Plutella xylostella = Plutella xylostella (diamond back moth), artificial diet; details: 120 h, application rate 200 ppm, L2 larvae, 5 days after infestation, read-out: effect in at least one of the two categories (mortality or growth inhibition)
Experimental: 24-well microtiter plates with artificial diet were treated with aqueous test solutions prepared from 10'000 ppm DMSO stock solutions by pipetting. After drying, the plates were infested with L2 larvae (10 to 15 per well). The samples were assessed for mortality and growth inhibition in comparison to untreated samples 5 days after infestation.
as §1

Spodoptera littoralis = Spodoptera littoralis (Egyptian cotton leaf worm), sprayed cotton leaf discs; details: foliar, 72 h, application rate 200 ppm, L1 larvae, 3 days after infestation, read-out: control (mortality, anti-feeding effect, growth inhibition)
Experimental: Cotton leaf discs were placed onto agar in 24-well microtiter plates and sprayed with aqueous test solutions prepared from 10'000 ppm DMSO stock solutions. After drying the leaf discs were infested with five L1 larvae. The samples were assessed for mortality, anti-feeding effect, and growth inhibition in comparison to untreated samples 3 days after infestation. Control of Spodoptera littoralis by a test sample is given when at least one of the categories mortality, anti-feedant effect, and growth inhibition is higher than the untreated sample.

Tetranychus urticae = Tetranychus urticae (two-spotted spider mite): feeding/contact activity; details: 192 h, application rate 200 ppm, mixed population (mobile stages), 8 days after infestation, read-out: mortality
Experimental: Bean leaf discs on agar in 24-well microtiter plates were sprayed with aqueous test solutions prepared from 10'000 ppm DMSO stock solutions. After drying the leaf discs were infested with a mite population of mixed ages. The samples were assessed for mortality on mixed population (mobile stages) 8 days after infestation.

Thrips tabaci = Thrips tabaci (onion thrips): feeding/contact activity; details: 144 h, application rate 200 ppm, Thrips population of mixed ages, 6 days after infestation, read-out: mortality
Experimental: Sunflower leaf discs were placed on agar in 24-well microtiter plates and sprayed with aqueous test solutions prepared from 10'000 ppm DMSO stock solutions. After drying the leaf discs were infested with a Thrips population of mixed ages. The samples were assessed for mortality 6 days after infestation.

Cc1cc(C2=NO[C@@](c3cc(Cl)c(F)c(Cl)c3)(C(F)(F)F)C2)ccc1C(=O)N[C@@H]1CON(S(=O)(=O)CC(=O)NO)C1 [Compound A203, 4-[(5S)-5-(3,5-dichloro-4-fluorophenyl)-5-(trifluoromethyl)-4H-1,2-oxazol-3-yl]-N-[(4S)-2-[2-(hydroxyamino)-2-oxoethyl]sulfonyl-1,2-oxazolidin-4-yl]-2-methylbenzamide]
≥ 80%: percent effect (mortality or growth inhibition) at 200 ppm (Diabrotica balteata) | percent effect (mortality or growth inhibition) at 200 ppm (Euschistus heros) | percent effect (mortality or growth inhibition) at 200 ppm (Plutella xylostella) | mortality at 200 ppm (Spodoptera littoralis) | mortality at 200 ppm (Tetranychus urticae) | mortality at 200 ppm (Thrips tabaci)

C=CCN(C(=O)OC(C)(C)C)S(=O)(=O)N1CC(NC(=O)c2ccc(C3=NO[C@@](c4cc(Cl)c(F)c(Cl)c4)(C(F)(F)F)C3)cc2C)CO1 (stereo partly drawn) [Compound A94, tert-butyl N-allyl-N-[4-[[4-[(5S)-5-(3,5-dichloro-4-fluoro-phenyl)-5-(trifluoromethyl)-4H-isoxazol-3-yl]-2-methyl-benzoyl]amino]isoxazolidin-2-yl]sulfonyl-carbamate]
≥ 80%: percent effect (mortality or growth inhibition) at 200 ppm (Diabrotica balteata) | percent effect (mortality or growth inhibition) at 200 ppm (Euschistus heros) | percent effect (mortality or growth inhibition) at 200 ppm (Plutella xylostella) | mortality at 200 ppm (Spodoptera littoralis) | mortality at 200 ppm (Tetranychus urticae) | mortality at 200 ppm (Thrips tabaci)

Cc1cc(C2=NOC(c3cccc(C(F)(F)F)c3)(C(F)(F)F)C2)ccc1C(=O)NC1CON(S(C)(=O)=O)C1 (stereo not drawn) [Compound A60]
≥ 80%: percent effect (mortality or growth inhibition) at 200 ppm (Diabrotica balteata) | percent effect (mortality or growth inhibition) at 200 ppm (Euschistus heros) | percent effect (mortality or growth inhibition) at 200 ppm (Plutella xylostella) | mortality at 200 ppm (Spodoptera littoralis) | mortality at 200 ppm (Tetranychus urticae) | mortality at 200 ppm (Thrips tabaci)

Cc1cc(C2=NO[C@](c3cc(Cl)cc(Cl)c3)(C(F)(F)F)C2)ccc1C(=O)N[C@H]1CON(S(=O)(=O)CC#N)C1 [Compound A165, N-[(4R)-2-(cyanomethylsulfonyl)-1,2-oxazolidin-4-yl]-4-[(5R)-5-(3,5-dichlorophenyl)-5-(trifluoromethyl)-4H-1,2-oxazol-3-yl]-2-methylbenzamide]
≥ 80%: percent effect (mortality or growth inhibition) at 200 ppm (Diabrotica balteata) | percent effect (mortality or growth inhibition) at 200 ppm (Euschistus heros) | percent effect (mortality or growth inhibition) at 200 ppm (Plutella xylostella) | mortality at 200 ppm (Spodoptera littoralis) | mortality at 200 ppm (Tetranychus urticae) | mortality at 200 ppm (Thrips tabaci)

Cc1cc(C2=NO[C@@](c3cc(Cl)c(F)c(Cl)c3)(C(F)(F)F)C2)ccc1C(=O)NC1CON(S(=O)(=O)c2ccc(Cl)cc2)C1 (stereo partly drawn) [Compound A2, N-[2-(4-chlorophenyl)sulfonylisoxazolidin-4-yl]-4-[(5S)-5-(3,5-dichloro-4-fluoro-phenyl)-5-(trifluoromethyl)-4H-isoxazol-3-yl]-2-methyl-benzamide]
≥ 80%: percent effect (mortality or growth inhibition) at 200 ppm (Diabrotica balteata) | percent effect (mortality or growth inhibition) at 200 ppm (Euschistus heros) | percent effect (mortality or growth inhibition) at 200 ppm (Plutella xylostella) | mortality at 200 ppm (Spodoptera littoralis) | mortality at 200 ppm (Tetranychus urticae) | mortality at 200 ppm (Thrips tabaci)

Cc1cc(C2=NO[C@@](c3cc(Cl)c(F)c(Cl)c3)(C(F)(F)F)C2)ccc1C(=O)NC1CON(S(=O)(=O)c2cccs2)C1 (stereo partly drawn) [Compound A9]
≥ 80%: percent effect (mortality or growth inhibition) at 200 ppm (Diabrotica balteata) | percent effect (mortality or growth inhibition) at 200 ppm (Euschistus heros) | percent effect (mortality or growth inhibition) at 200 ppm (Plutella xylostella) | mortality at 200 ppm (Spodoptera littoralis) | mortality at 200 ppm (Tetranychus urticae) | mortality at 200 ppm (Thrips tabaci)

CS(=O)(=O)N1CC(NC(=O)c2ccc(C3=NOC(c4cc(Cl)cc(Cl)c4)(C(F)(F)F)C3)cc2C(F)(F)F)CO1 (stereo not drawn) [Compound A58]
≥ 80%: percent effect (mortality or growth inhibition) at 200 ppm (Diabrotica balteata) | percent effect (mortality or growth inhibition) at 200 ppm (Euschistus heros) | percent effect (mortality or growth inhibition) at 200 ppm (Plutella xylostella) | mortality at 200 ppm (Spodoptera littoralis) | mortality at 200 ppm (Tetranychus urticae) | mortality at 200 ppm (Thrips tabaci)

CS(=O)(=O)N1CC(NC(=O)c2ccc(C3=NOC(c4cc(Cl)cc(Cl)c4)(C(F)(F)F)C3)cc2Cl)CO1 (stereo not drawn) [Compound A49]
≥ 80%: percent effect (mortality or growth inhibition) at 200 ppm (Diabrotica balteata) | percent effect (mortality or growth inhibition) at 200 ppm (Euschistus heros) | percent effect (mortality or growth inhibition) at 200 ppm (Plutella xylostella) | mortality at 200 ppm (Spodoptera littoralis) | mortality at 200 ppm (Tetranychus urticae) | mortality at 200 ppm (Thrips tabaci)

Cc1cc(C2=NO[C@@](c3cc(Cl)cc(Cl)c3)(C(F)(F)F)C2)ccc1C(=O)N[C@@H]1CON(S(=O)(=O)CC(F)(F)F)C1 [Compound A195, 4-[(5S)-5-(3,5-dichlorophenyl)-5-(trifluoromethyl)-4H-1,2-oxazol-3-yl]-2-methyl-N-[(4S)-2-(2,2,2-trifluoroethylsulfonyl)-1,2-oxazolidin-4-yl]benzamide]
≥ 80%: percent effect (mortality or growth inhibition) at 200 ppm (Diabrotica balteata) | percent effect (mortality or growth inhibition) at 200 ppm (Euschistus heros) | percent effect (mortality or growth inhibition) at 200 ppm (Plutella xylostella) | mortality at 200 ppm (Spodoptera littoralis) | mortality at 200 ppm (Tetranychus urticae) | mortality at 200 ppm (Thrips tabaci)

Cc1cc(C2=NO[C@@](c3cc(Cl)cc(Cl)c3)(C(F)(F)F)C2)ccc1C(=O)N[C@@H]1CON(S(=O)(=O)NCC(F)(F)F)C1 [Compound A194]
≥ 80%: percent effect (mortality or growth inhibition) at 200 ppm (Diabrotica balteata) | percent effect (mortality or growth inhibition) at 200 ppm (Euschistus heros) | percent effect (mortality or growth inhibition) at 200 ppm (Plutella xylostella) | mortality at 200 ppm (Spodoptera littoralis) | mortality at 200 ppm (Tetranychus urticae) | mortality at 200 ppm (Thrips tabaci)

Cc1cc(C2=NO[C@](c3cc(Cl)c(F)c(Cl)c3)(C(F)(F)F)C2)ccc1C(=O)N[C@@H]1CON(SC(F)(F)F)C1 [Compound A224, 4-[(5R)-5-(3,5-dichloro-4-fluorophenyl)-5-(trifluoromethyl)-4H-1,2-oxazol-3-yl]-2-methyl-N-[(4S)-2-(trifluoromethylsulfanyl)-1,2-oxazolidin-4-yl]benzamide]
≥ 80%: percent effect (mortality or growth inhibition) at 200 ppm (Diabrotica balteata) | percent effect (mortality or growth inhibition) at 200 ppm (Euschistus heros) | percent effect (mortality or growth inhibition) at 200 ppm (Plutella xylostella) | mortality at 200 ppm (Spodoptera littoralis) | mortality at 200 ppm (Tetranychus urticae) | mortality at 200 ppm (Thrips tabaci)

Cc1cc(C2=NO[C@@](c3cc(Cl)cc(Cl)c3)(C(F)(F)F)C2)ccc1C(=O)N[C@@H]1CON(S(=O)(=O)CC(=O)N(C)C)C1 [Compound A202, 4-[(5S)-5-(3,5-dichlorophenyl)-5-(trifluoromethyl)-4H-1,2-oxazol-3-yl]-N-[(4S)-2-[2-(dimethylamino)-2-oxoethyl]sulfonyl-1,2-oxazolidin-4-yl]-2-methylbenzamide]
≥ 80%: percent effect (mortality or growth inhibition) at 200 ppm (Diabrotica balteata) | percent effect (mortality or growth inhibition) at 200 ppm (Euschistus heros) | percent effect (mortality or growth inhibition) at 200 ppm (Plutella xylostella) | mortality at 200 ppm (Spodoptera littoralis) | mortality at 200 ppm (Tetranychus urticae) | mortality at 200 ppm (Thrips tabaci)

Cc1cc(C2=NO[C@](c3cc(Cl)c(F)c(Cl)c3)(C(F)(F)F)C2)ccc1C(=O)N[C@H]1CON(S(=O)(=O)CCC(F)(F)F)C1 [Compound A199, 4-[(5R)-5-(3,5-dichloro-4-fluorophenyl)-5-(trifluoromethyl)-4H-1,2-oxazol-3-yl]-2-methyl-N-[(4R)-2-(3,3,3-trifluoropropylsulfonyl)-1,2-oxazolidin-4-yl]benzamide]
≥ 80%: percent effect (mortality or growth inhibition) at 200 ppm (Diabrotica balteata) | percent effect (mortality or growth inhibition) at 200 ppm (Euschistus heros) | percent effect (mortality or growth inhibition) at 200 ppm (Plutella xylostella) | mortality at 200 ppm (Spodoptera littoralis) | mortality at 200 ppm (Tetranychus urticae) | mortality at 200 ppm (Thrips tabaci)

CN(C)S(=O)(=O)N1C[C@@H](NC(=O)c2ccc(C3=NO[C@@](c4cc(Cl)cc(Cl)c4)(C(F)(F)F)C3)cc2Cl)CO1 [Compound A110, 2-chloro-4-[(5S)-5-(3,5-dichlorophenyl)-5-(trifluoromethyl)-4H-isoxazol-3-yl]-N-[(4R)-2-(dimethylsulfamoyl)isoxazolidin-4-yl]benzamide]
≥ 80%: percent effect (mortality or growth inhibition) at 200 ppm (Diabrotica balteata) | percent effect (mortality or growth inhibition) at 200 ppm (Euschistus heros) | percent effect (mortality or growth inhibition) at 200 ppm (Plutella xylostella) | mortality at 200 ppm (Spodoptera littoralis) | mortality at 200 ppm (Tetranychus urticae) | mortality at 200 ppm (Thrips tabaci)

Cc1cc(C2=NO[C@@](c3cc(Cl)c(F)c(Cl)c3)(C(F)(F)F)C2)ccc1C(=O)NC1CON(S(=O)(=O)N(C)S(C)(=O)=O)C1 (stereo partly drawn) [Compound A92]
≥ 80%: percent effect (mortality or growth inhibition) at 200 ppm (Diabrotica balteata) | percent effect (mortality or growth inhibition) at 200 ppm (Euschistus heros) | percent effect (mortality or growth inhibition) at 200 ppm (Plutella xylostella) | mortality at 200 ppm (Spodoptera littoralis) | mortality at 200 ppm (Tetranychus urticae) | mortality at 200 ppm (Thrips tabaci)
